Source: US20120157521A1, “TREATMENT OF MACULAR DEGENERATION” (Bonomics Limited, priority 2009, published 2012)

Columns and labels:
[1] = test system: tubulin; test: Tubulin polymerisation assay; assay type: biochemical
Description: Tubulin Polymerisation Assay: Tubulin polymerisation inhibition assays were performed using a fluorescent-based detection kit (#BK011, Cytoskeleton) according to the instructions of the manufacturer. The test compound was added to a 2 mg/ml tubulin solution containing 20% glycerol and 1 mM GTP in 1× Buffer 1 (Buffer 1: 80 mM Piperazine-N,N′-bis[2-ethanesulfonic acid]sequisodium salt; 2 mM magnesium chloride; 0.5 mM Ethylene glycol-bis(b-amino-ethyl ether)N,N,N′,N′-tetra-acetic acid, pH 6.9, 10 uM fluorescent reporter). Fluorescence was measured over a period of 42 minutes at 1 minute intervals. Increased fluorescence indicates increase in tubulin polymerisation. There is a ten-fold increase in the affinity of the fluorescent reporter for polymerised tubulin compared to monomeric tubulin subunits. The result is a fluorescence signal that closely follows tubulin polymerisation.

[2] = test system: quiescent human umbilical vein endothelial cells (HUVEC); test: Proliferation assay - quiescent endothelium (MTT), HUVEC; assay type: cell-based; conditions: 48 hrs
Description: Proliferation Assay—quiescent endothelium: Human umbilical vein endothelial cells (CC-2519, Clonetics) were plated at 15000 cells/well in EBM2 (CC-3156, Clonetics)+0.5% FBS (CC-4101A, Clonetics)+GA-1000 (CC-4381A, Clonetics) in a 96 well plate in triplicate. Cells were cultured overnight at 37° C. 5% CO2. Medium was subsequently replaced with fresh medium including the compound or negative control. Cells were cultured for a period of 48 hrs. An MTT assay was performed to measure changes in cell numbers. Briefly, 20 μl of MTT reagent was added to cells containing 100 μl of EBM2+0.5% FBS and incubated at 37° C. for 2 hours. Absorbance was measured at 492 nm.

[3] = test system: HUVEC cells under activated cell conditions; test: Disruption of endothelial cell cytoskeleton (actin staining); assay type: cell-based, human; conditions: 10 nM, 20 minutes, actin stain
Description: FIG. 7 depicts disruption of endothelial cell cytoskeleton by compound Example 2. Endothelial cells were cultured in the presence of 10 nM compound Example 2 or DMSO control, and after 20 mins washed, fixed and stained with actin.
HUVEC cells were cultured under “activated” cell conditions in the presence of 10 nM compound Example 2 or DMSO control (using HUVEC cells). After 20 minutes cells were washed, fixed and stained for actin. […] A bleb is defined as an irregular bulge in the plasma membrane of a cell caused by localized decoupling of the cytoskeleton from the plasma membrane. Blebbing is the term used to describe the formation of blebs.

[4] = test system: HUVEC endothelial cell capillary formation; test: Endothelial cell capillary formation on Matrigel; conditions: HUVEC, 25,000/well, 96-well plates, 22 hrs
Description: DMSO vehicle was included in the analysis as a negative control. Cells were plated at 25,000/well in 96-well plates and cultured for 22 hrs.
DMSO vehicle (C, F) was included in the analysis as a negative control. Cells were plated at 25,000/well in 96-well plates and cultured for 22 hrs.

[5] = test system: quiescent human abdominal aorta endothelial cells (HAAEC); test: Proliferation assay - quiescent endothelium, HAAEC; conditions: Endothelial cell, read-out: Quiescent EC50
[6] = test system: stable pre-formed HUVEC capillary tubes; test: Disruptive activity on stable pre-formed capillary tubes on Matrigel; conditions: 5 hrs after compound, at concentrations that inhibit capillary formation

SMILES | Tubulin polymerisation inhibition (in words) [1] | EC50 [2] | Disruption of endothelial cell cytoskeleton (blebbing) [3] | Effect on capillary formation on Matrigel [4] | EC50 [5] | Disruption of stable pre-formed capillaries [6]
COc1cc(C(=O)c2c(C)oc3c(O)c(OC)ccc23)cc(OC)c1OC [Example 1, 2-Methyl-7-hydroxy-3-(3,4,5-trimethoxybenzoyl)-6-methoxybenzofuran] | potent tubulin polymerisation inhibitor | – | – | – | – | –
COc1cc(C(=O)c2c(C)oc3c(OP(=O)([O-])[O-])c(OC)ccc23)cc(OC)c1OC.[Na+].[Na+] [Example 2, Disodium 6-methoxy-2-methyl-3-(3,4,5-trimethoxybenzoyl)benzofuran-7-yl phosphate] | – | 0.0233 µM | clear evidence of “blebbing” | inhibited | 0.0125 µM | does not disrupt stable pre-formed capillaries
